Among the data in ChEMBL document CHEMBL3826961, “Lanostane triterpenoids from Ganoderma curtisii and their NO production inhibitory activities of LPS-induced microglia” (Bioorg Med Chem Lett, 2016) are IC50 and viability values, retold here.

A short description of data set [1]: Antiinflammatory activity in mouse BV2 cells assessed as inhibition of LPS-induced NO production incubated for 24 hrs measured after 15 mins by Griess assay. Type of data set: functional, cell-based. Particulars: BV-2.
Data set [2] can be described thus: Cytotoxicity against LPS-induced mouse BV2 cells assessed as cell viability after 24 hrs by MTT assay. Also noted: concentration or dose not given beside the values. Particulars: read-out: Activity. Type of data set: cell-based, BV-2. For orientation: Tetrazolium assays rely on reduction of a dye to a coloured formazan, in cell work by metabolically active cells.

In general, IC50 refers to the concentration at which inhibition is half-maximal. Turning to `CC(CC(=O)C[C@@H](C)[C@H]1C[C@H](O)[C@@]2(C)C3=C(C(=O)C[C@]12C)[C@@]1(C)CCC(=O)C(C)(C)[C@@H]1C[C@@H]3O)C(=O)O` (stereo partly specified), the IC50 in data set [1] stood at 13.6 µM. Moreover, in data set [2], the viability at 24 h stood at 97.9%.

In the case of `CC(=O)O[C@@H]1C(=O)C2=C(C(=O)C[C@H]3C(C)(C)[C@@H](O)CC[C@]23C)[C@]2(C)C(=O)C[C@H](/C(C)=C\C(=O)CC(C)C(=O)O)[C@@]12C` (stereo partly specified), in data set [1], the 50% inhibitory concentration (IC50) was 10.4 µM. Moreover, the viability at 24 h in data set [2] was determined as 95.1%.

In the case of `CC(CC(=O)C[C@@H](C)[C@H]1C[C@H](O)[C@@]2(C)C3=C(C(=O)C[C@]12C)[C@@]1(C)CC[C@H](O)C(C)(C)[C@@H]1C[C@@H]3O)C(=O)O` (stereo partly specified), in data set [1], the IC50 is 13.6 µM. In addition, the viability at 24 h in data set [2] amounted to 90.7%.

Regarding `CC(CC(=O)C[C@@H](C)[C@H]1CC(=O)[C@@]2(C)C3=C(C(=O)[C@@H](O)[C@]12C)[C@@]1(C)CCC(=O)C(C)(C)[C@@H]1C[C@@H]3O)C(=O)O` (stereo partly specified), the IC50 in data set [1] turned out to be 5.91 µM. For the same compound, in data set [2], the viability at 24 h is 92.3%.

In the case of `CC(CC(=O)C[C@@H](C)[C@H]1C[C@H](O)[C@@]2(C)C3=C(C(=O)C[C@]12C)[C@@]1(C)CC[C@H](O)[C@@](C)(CO)[C@@H]1C[C@@H]3O)C(=O)O` (stereo partly specified), the IC50 in data set [1] amounted to 4.15 µM. In addition, the viability at 24 h in data set [2] amounted to 97.8%.

Turning to `CC(=O)O[C@@H]1C(=O)C2=C(C(=O)C[C@H]3C(C)(C)C(=O)CC[C@]23C)[C@]2(C)C(=O)C[C@H](/C(C)=C\C(=O)CC(C)C(=O)O)[C@@]12C` (stereo partly specified), the concentration for half-maximal inhibition (IC50) in data set [1] worked out at 28 µM. Further, the viability at 24 h in data set [2] was found to be 94.3%.

In the case of `C/C(=C/C(=O)CC(C)C(=O)O)[C@H]1CC(=O)[C@@]2(C)C3=C(C(=O)C[C@]12C)[C@@]1(C)CCC(=O)C(C)(C)[C@@H]1C[C@@H]3O` (stereo partly specified), the IC50 in data set [1] is 13.8 µM. Further, the viability at 24 h in data set [2] came to 96.5%.

With `C/C(=C/C(=O)CC(C)C(=O)O)[C@H]1CC(=O)[C@@]2(C)C3=C(C(=O)[C@@H](O)[C@]12C)[C@@]1(C)CC[C@H](O)C(C)(C)[C@@H]1CC3=O` (stereo partly specified), the concentration for half-maximal inhibition (IC50) in data set [1] is 25.9 µM. Moreover, the viability at 24 h in data set [2] turned out to be 94.5%.

As for `C/C(=C/C(=O)CC(C)C(=O)O)[C@H]1C[C@H](O)[C@@]2(C)C3=C(C(=O)C[C@]12C)[C@@]1(C)CCC(=O)C(C)(C)[C@@H]1C[C@@H]3O` (stereo partly specified), in data set [1], the IC50 is 8.73 µM. The viability at 24 h in data set [2] turned out to be 92.5%.

`C/C(=C/C(=O)CC(C)C(=O)O)[C@H]1CC(=O)[C@@]2(C)C3=C(C(=O)[C@@H](O)[C@]12C)[C@@]1(C)CC[C@H](O)C(C)(C)[C@@H]1C[C@@H]3O` (stereo partly specified): the half-maximal inhibitory concentration (IC50) in data set [1] stood at 9.55 µM. Besides, the viability at 24 h in data set [2] amounted to 93.5%.

Take `CC(CC(=O)C[C@@H](C)[C@H]1C[C@H](O)[C@@]2(C)C3=C(C(=O)C[C@]12C)[C@@]1(C)CC[C@H](O)C(C)(C)[C@@H]1CC3=O)C(=O)O` (stereo partly specified): the IC50 in data set [1] was found to be 6.5 µM. For the same compound, in data set [2], the viability at 24 h was 89.3%.

Consider `CC(CC(=O)C[C@](C)(O)[C@H]1CC(=O)[C@@]2(C)C3=C(C(=O)[C@@H](O)[C@]12C)[C@@]1(C)CC[C@H](O)C(C)(C)[C@@H]1C[C@@H]3O)C(=O)O` (stereo partly specified), for which the IC50 in data set [1] amounted to 21.3 µM. In addition, the viability at 24 h in data set [2] is 96.3%.

Consider `C/C(=C/C(=O)CC(C)C(=O)O)[C@H]1C[C@H](O)[C@@]2(C)C3=C(C(=O)C[C@]12C)[C@@]1(C)CCC(=O)C(C)(C)[C@@H]1CC3` (stereo partly specified), for which the IC50 in data set [1] is 26.8 µM. In addition, in data set [2], the viability at 24 h stood at 89.3%.

For `CC(CC(=O)C[C@@H](C)[C@H]1CC(=O)[C@@]2(C)C3=C(C(=O)C[C@]12C)[C@@]1(C)CCC(=O)C(C)(C)[C@@H]1CC3=O)C(=O)O` (stereo partly specified), the 50% inhibitory concentration (IC50) in data set [1] is 9.41 µM. Also, in data set [2], the viability at 24 h stood at 97.5%.

In the case of `CC(CC(=O)C[C@@H](C)[C@H]1CC(=O)[C@@]2(C)C3=C(C(=O)C[C@]12C)[C@@]1(C)CC[C@H](O)C(C)(C)[C@@H]1C[C@@H]3O)C(=O)O` (stereo partly specified) [GANODERIC ACID B], in data set [1], the IC50 came out at 20.2 µM. For the same compound, the viability at 24 h in data set [2] was found to be 94.7%.

Regarding `CC(CC(=O)C[C@@H](C)[C@H]1CC(=O)[C@@]2(C)C3=C(C(=O)[C@@H](O)[C@]12C)[C@@]1(C)CC[C@H](O)C(C)(C)[C@@H]1CC3=O)C(=O)O` (stereo partly specified) [GANODERIC ACID C6], in data set [1], the IC50 was 15.4 µM. Also, the viability at 24 h in data set [2] turned out to be 91.6%.

Turning to `CC(CC(=O)C[C@@H](C)[C@H]1CC(=O)[C@@]2(C)C3=C(C(=O)C[C@]12C)[C@@]1(C)CCC(=O)C(C)(C)[C@@H]1C[C@@H]3O)C(=O)O` (stereo partly specified) [GANODERIC ACID D], the IC50 in data set [1] worked out at 10.9 µM. In addition, the viability at 24 h in data set [2] was 93.3%.

With `CC(=O)O[C@@H]1C(=O)C2=C(C(=O)C[C@H]3C(C)(C)C(=O)CC[C@]23C)[C@]2(C)C(=O)C[C@H]([C@H](C)CC(=O)CC(C)C(=O)O)[C@@]12C` (stereo partly specified) [GANODERIC ACID F], the half-maximal inhibitory concentration (IC50) in data set [1] was 24.1 µM. Further, the viability at 24 h in data set [2] was 90.6%.

For `CC(CC(=O)C[C@@H](C)[C@H]1CC(=O)[C@@]2(C)C3=C(C(=O)[C@@H](O)[C@]12C)[C@@]1(C)CC[C@H](O)C(C)(C)[C@@H]1C[C@@H]3O)C(=O)O` (stereo partly specified) [GANODERIC ACID G], in data set [1], the IC50 came to 5.77 µM. Further, in data set [2], the viability at 24 h worked out at 95.2%.

With `CC(=O)O[C@@H]1C(=O)C2=C(C(=O)C[C@H]3C(C)(C)[C@@H](O)CC[C@]23C)[C@]2(C)C(=O)C[C@H]([C@H](C)CC(=O)CC(C)C(=O)O)[C@@]12C` (stereo partly specified) [GANODERIC ACID H], in data set [1], the IC50 came to 12.6 µM. Further, in data set [2], the viability at 24 h was determined as 90.4%.

As to `CC(CC(=O)C[C@@H](C)[C@H]1C[C@H](O)[C@@]2(C)C3=C(C(=O)C[C@]12C)[C@@]1(C)CCC(=O)C(C)(C)[C@@H]1CC3=O)C(=O)O` (stereo partly specified) [GANODERIC ACID J], in data set [1], the concentration for half-maximal inhibition (IC50) came out at 22 µM. Moreover, the viability at 24 h in data set [2] was 93.7%.

`CC(=O)O[C@@H]1C(=O)C2=C([C@@H](O)C[C@H]3C(C)(C)[C@@H](O)CC[C@]23C)[C@]2(C)C(=O)C[C@H]([C@H](C)CC(=O)CC(C)C(=O)O)[C@@]12C` (stereo partly specified) [GANODERIC ACID K]: the IC50 in data set [1] is 3.65 µM. The viability at 24 h in data set [2] was 98.5%.

Regarding `C[C@H](CC[C@H](O)[C@](C)(O)CO)[C@H]1CC[C@@]2(C)C3=CC[C@H]4C(C)(C)C(=O)CC[C@]4(C)C3=CC[C@]12C` [GANODERMANONTRIOL], the IC50 in data set [1] stood at 23.6 µM. Moreover, the viability at 24 h in data set [2] amounted to 85.5%.

For the compound `C/C(=C\CC[C@@H](C)[C@H]1CC[C@@]2(C)C3=CC[C@H]4C(C)(C)[C@@H](O)CC[C@]4(C)C3=CC[C@]12C)CO` [GANODEROL B], in data set [1], the IC50 came out at 13.7 µM. The viability at 24 h in data set [2] is 91.3%.

Turning to `CC(CC(=O)C[C@@H](C)[C@H]1C[C@H](O)[C@@]2(C)C3=C(C(=O)C[C@]12C)[C@@]1(C)CCC(=O)C(C)(C)[C@@H]1CC3)C(=O)O` (stereo partly specified) [GANOLUCIDIC ACID A], in data set [1], the IC50 was determined as 25.3 µM. Further, the viability at 24 h in data set [2] came to 95.2%.

Consider `COC(=O)C(C)CC(=O)C[C@@H](C)[C@H]1C[C@H](O)[C@@]2(C)C3=C(C(=O)C[C@]12C)[C@@]1(C)CCC(=O)C(C)(C)[C@@H]1C[C@@H]3O` (stereo partly specified) [METHYL GANODERATE A], for which, in data set [1], the IC50 is 8.01 µM. For the same compound, the viability at 24 h in data set [2] amounted to 91.3%.

As for `COC(=O)CC[C@@H](C)[C@H]1CC(=O)[C@@]2(C)C3=C(C(=O)[C@@H](O)[C@]12C)[C@@]1(C)CC[C@H](O)C(C)(C)[C@@H]1CC3=O` [METHYL LUCIDENATE L], the IC50 in data set [1] was found to be 22.5 µM. Also, the viability at 24 h in data set [2] was 83.5%.

Consider `O=c1c(O)c(-c2ccc(O)c(O)c2)oc2cc(O)cc(O)c12` [QUERCETIN], for which, in data set [1], the IC50 was 15.1 µM. In addition, the viability at 24 h in data set [2] worked out at 92.5%.
